Target: T1, human GPR68 (Homo sapiens, UniProt Q15743)
T1 construct: host or cells: HEK293T
Assay: GPR68 cAMP GloSensor assay
Assay type: cell-based
Details: HEK293T cells transiently transfected with GPR68 and GloSensor-22F cAMP reporter; activation at pH 6.0; 10 μM top, 3-fold, 10 points, in duplicate
From the text: The assay was developed to provide a quick screen assay to determine the potency and EC50s/IC50s of compounds against the GPR68 receptor with transient transfection cell.
GPR68 senses extracellular pH.
To determine the compound activity in GPR68 inhibition, an GPR68 dependent cAMP assay was developed and validated. Principle of this method: Expression of GPR68 in HEK293T cells by transient transfection of a GPR68-expression vector and a cAMP-sensing reporter vector (GloSensor, Promega). The transfected cells as a pool will be re-plated uniformly in assay plates, to minimize the in-experiment variation. The GPR68 receptor signal will be measured via Gs to CAMP increase as indicated by the Luc activation under basal (pH8.4 or pH7.4) or activated (pH6.5 or pH6.0) states.
• GloSensor™ CAMP Reagent (Promega, Cat #E1291) • human GPR68 NM_001177676.2_pcDNA3.1 (+)(Genscript) • The GloSensor™-22F CAMP Reporter Vector (Promega, Cat #E2301) • DMEM (Gibco, Cat #11995065) • FBS, Qualified, New Zealand origin (Gibco, Cat #10091148) • Penicillin-Streptomycin (Gibco, Cat #15140122) • 0.25% Trypsin-EDTA (Gibco, Cat #25200056) • PBS (Gibco, Cat #10010049) • 1x HBSS (Gibco, Cat #14175079) • HEPES (Gibco, Cat #15630080) • MES (Sigma, Cat #M2933-25G) • TAPS (Sigma, Cat #T5316-25G) • NaOH (Sigma, Cat #221465) • BSA (Sigma, Cat #B2064-50G) • Opti-MEM (Gibco, Cat #31985070) • DMSO (Sigma, Cat #D5879-1L) • FuGene HD Transfection Reagent (Promega, Cat #E2311)
• 1) Detached cells with 0.25% Trypsin when the cell confluence was about 80%. • 2)Resuspended the detached cells in 3 ml fresh cell culture medium. Counted the cell number and diluted the cells to proper density. • 3) Seeded 1.5∧10∧6 cells into 6-well plate (Cat. #3516) in 2 ml per well contained the need to transfection well so that the cells were 80-85% confluent at the time of transfection. • 4) Incubated the cells at 37° C. in a CO2 incubator for 6 hours.
• 5) Gently aspirated off the DMEM medium. Then added the Opti-MEM® Medium without serum into 6-well plate. • 6) Added 2.5 μg GPR68 and 2.5 μg GloSensor-22F in 1:1 ratio and 12 μl FuGeneHD into 120 μl of Opti-MEM® Medium without serum. Mixed gently and incubated for 15 min at room temperature. • 7) After the 15-minute incubation, added 137 μl of DNA-Transfection Reagent complexes to each well containing cells and medium. Mixed gently by rocking the plate back and forth. • 8) Incubated the cells at 37° C. in a co2 incubator for 19 h until they were ready to assay for transgene expression.
Seeded 40000 cells/well, 100 μl/well in 96-well plate (Cat. #3610) with complete DMEM medium; incubated overnight.
• 1) Compounds were solubilized in 100% DMSO to a concentration of 50 mM. • 2) Prepared compound DMSO solutions in 384 LDV echo plate: top concentration was 10 mM, 3-fold, 10 dose-response, so intermediate concentrations were created by serially diluting by […] beginning from the 10000 μM. 5 μL tested intermediate compounds+10 μl DMSO solutions were transferred to 384 LDV echo plate. Centrifuged the echo plate at 1000 rpm for 30s before Echo procedure. Compounds were transferred 180 nL volume by Echo550 to a 96-assay plate (corning, Cat #3599), to make compound 10 concentration points in duplicate (the final top concentration was 10 μM, 3-fold, 10 dose-response, in duplicate). Final DMSO concentration is 0.1%. • 3) For the Low control wells and High control wells, 180 nL DMSO were transferred by ECHO. • 4) Layout of assay plate 180 nL/well of compounds in 100% DMSO 180 nL/well DMSO in Low control wells and High control wells was as shown below. Compounds were prepared into assay plate at […] in 100% DMSO, the assay volume was […], and final DMSO concentration was 0.1%.
• 1)Removed culture medium, added 100 μL/well GloSensor (50×) to cells, then incubated for 2 h at room temperature.
• 2) Pre-read Luminescence at −5 min for background after 2 h incubation.

T1 sequence (Q15743 whole entry): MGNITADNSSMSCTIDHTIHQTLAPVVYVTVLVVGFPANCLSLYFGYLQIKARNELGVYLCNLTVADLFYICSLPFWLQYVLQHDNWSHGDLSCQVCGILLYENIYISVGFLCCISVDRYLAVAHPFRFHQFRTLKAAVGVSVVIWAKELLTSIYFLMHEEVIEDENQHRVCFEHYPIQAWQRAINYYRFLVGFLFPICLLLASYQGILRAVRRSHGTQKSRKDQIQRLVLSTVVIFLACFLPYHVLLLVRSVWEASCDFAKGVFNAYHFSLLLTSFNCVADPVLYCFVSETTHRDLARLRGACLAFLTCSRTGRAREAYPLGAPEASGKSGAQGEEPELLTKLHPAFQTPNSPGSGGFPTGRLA

**Q.** How did the IC50 turn out when O=C(/C=C/c1ccc2c(cnn2CC2CC2)c1)Nc1sccc1C(=O)O [Compound 1] was run?
**A.** Its IC50 is 0.593 µM.

**Q.** Which IC50 does the source give for O=C(/C=C/c1ccc2c(cnn2CC2CC2)c1)Nc1ccccc1F [Compound 2, (E)-3-(1-(cyclopropylmethyl)-1H-indazol-5-yl)-N-(2-fluorophenyl)acrylamide] here?
**A.** The IC50 was 0.861 µM.

**Q.** How did the IC50 turn out when O=C(/C=C/c1cc2cnn(CC3CC3)c2cc1F)Nc1ccccc1C(=O)O [Compound 4, (E)-2-(3-(1-(cyclopropylmethyl)-6-fluoro-1H-indazol-5-yl)acrylamido)benzoic acid] was run?
**A.** Its IC50 is 1.29 µM.

**Q.** With O=C(/C=C/c1ccc2c(cnn2CC2CC2)c1)Nc1ccccn1 [Compound 5, (E)-3-(1-(cyclopropylmethyl)-1H-indazol-5-yl)-N-(pyridin-2-yl)acrylamide] as the molecule, how does the IC50 read?
**A.** Its IC50 is 1.41 µM.

**Q.** With O=C(/C=C/c1ccc2c(cnn2CC2CC2)c1)Nc1ccccc1C(=O)O [Compound 6, (E)-2-(3-(1-(cyclopropylmethyl)-1H-indazol-5-yl)acrylamido)benzoic acid] as the molecule, how does the IC50 read?
**A.** Its IC50 is 1.68 µM.

**Q.** O=C(/C=C/c1ccc2c(cnn2CC2CC2)c1)Nc1cccnc1C(=O)O [Compound 7, (E)-3-(3-(1-(cyclopropylmethyl)-1H-indazol-5-yl)acrylamido)picolinic acid] was tested. Which IC50 did it give?
**A.** Its IC50 is 2.02 µM.

**Q.** Which IC50 does the source give for O=C(/C=C/c1ccc2c(cnn2CC2CC2)c1)Nc1ccccc1 [Compound 8, (E)-3-(1-(cyclopropylmethyl)-1H-indazol-5-yl)-N-phenylacrylamide] here?
**A.** Its IC50 is 2.08 µM.

**Q.** Cn1ncc2cc(/C=C/C(=O)Nc3ccccn3)ccc21 [Compound 9, (E)-3-(1-methyl-1H-indazol-5-yl)-N-(pyridin-2-yl)acrylamide] was tested. Which IC50 did it give?
**A.** Its IC50 is 3.46 µM.

**Q.** Which IC50 does the source give for O=C(/C=C/c1ccc2c(cnn2CC2CC2)c1)Nc1cccc(C(=O)O)n1 [Compound 10, (E)-6-(3-(1-(cyclopropylmethyl)-1H-indazol-5-yl)acrylamido)picolinic acid] here?
**A.** The IC50 was 3.82 µM.

**Q.** With Cn1ncc2cc(/C=C/C(=O)Nc3ccccc3)ccc21 [Compound 11, (E)-3-(1-methyl-1H-indazol-5-yl)-N-phenylacrylamide] as the molecule, how does the IC50 read?
**A.** The IC50 was 3.83 µM.

**Q.** O=C(/C=C/c1ccc2c(cnn2CC2CC2)c1)Nc1ccccc1NS(=O)(=O)CC(F)(F)F [Compound 12, (E)-3-(1-(cyclopropylmethyl)-1H-indazol-5-yl)-N-(2-((2,2,2-trifluoroethyl)sulfonamido)phenyl)acrylamide] was tested. Which IC50 did it give?
**A.** Its IC50 is 4.49 µM.

**Q.** Which IC50 does the source give for O=C(/C=C/c1ccc2c(cnn2CC2CC2)c1)Nc1ccccc1-c1noc(=O)[nH]1 [Compound 13, (E)-3-(1-(cyclopropylmethyl)-1H-indazol-5-yl)-N-(2-(5-oxo-4,5-dihydro-1,2,4-oxadiazol-3-yl)phenyl)acrylamide] here?
**A.** Its IC50 is 4.81 µM.

**Q.** For O=C(/C=C/c1ccc2c(cnn2CC2CC2)c1)Nc1ccccc1-c1n[nH]c(=O)o1 [Compound 14, (E)-3-(1-(cyclopropylmethyl)-1H-indazol-5-yl)-N-(2-(5-oxo-4,5-dihydro-1,3,4-oxadiazol-2-yl)phenyl)acrylamide], which IC50 is on record?
**A.** Its IC50 is 5.72 µM.

**Q.** Which IC50 does the source give for O=C(O)c1nn(C(=O)/C=C/c2ccc3c(cnn3CC3CC3)c2)c2ccccc12 [Compound 15] here?
**A.** Its IC50 is 6.68 µM.

**Q.** For O=C(/C=C/c1ccc2c(cnn2CC2CC2)c1)Nc1ccccc1-c1nnn[nH]1 [Compound 16, (E)-N-(2-(1H-tetrazol-5-yl)phenyl)-3-(1-(cyclopropylmethyl)-1H-indazol-5-yl)acrylamide], which IC50 is on record?
**A.** Its IC50 is 6.9 µM.

**Q.** Which IC50 does the source give for CN(C)S(=O)(=O)NC(=O)c1ccccc1NC(=O)/C=C/c1ccc2c(cnn2CC2CC2)c1 [Compound 17] here?
**A.** The IC50 was 7.02 µM.

**Q.** NS(=O)(=O)c1ccccc1NC(=O)/C=C/c1ccc2c(cnn2CC2CC2)c1 [Compound 18, (E)-3-(1-(cyclopropylmethyl)-1H-indazol-5-yl)-N-(2-sulfamoylphenyl)acrylamide] was tested. Which IC50 did it give?
**A.** Its IC50 is 7.39 µM.

**Q.** For O=C(/C=C/c1ccc2c(cnn2CC2CC2)c1)NC1C2CC3CC(C2)CC1C3 (centres unmarked) [Compound 19], which IC50 is on record?
**A.** Its IC50 is 9.7 µM.

**Q.** O=C(/C=C/c1ccc2c(cnn2CC2CC2)c1)Nc1ncccc1F [Compound 23] was tested. Which IC50 did it give?
**A.** The IC50 was 17 µM.

**Q.** O=C(/C=C/c1ccc2c(cnn2CC2CC2)c1)Nc1ccc(F)cn1 [Compound 25] was tested. Which IC50 did it give?
**A.** Its IC50 is 14.9 µM.

**Q.** Which IC50 does the source give for O=C(/C=C/c1ccc2c(cnn2CC2CC2)c1)Nc1c(F)cccc1C(=O)O [Compound 36] here?
**A.** The IC50 was 11.5 µM.

**Q.** O=C(/C=C/c1ccc2c(cnn2CC2CC2)c1)Nc1ccc(F)cc1C(=O)O [Compound 55] was tested. Which IC50 did it give?
**A.** Its IC50 is 8.6 µM.

**Q.** With O=C(/C=C/c1ccc2c(cnn2CC2CC2)c1)Nc1cc(F)ccc1C(=O)O [Compound 56] as the molecule, how does the IC50 read?
**A.** The IC50 was 3.52 µM.

Source: patent US20260209183A1, “HETEROCYCLIC COMPOUNDS AND USES THEREOF” (CERTA THERAPEUTICS PTY LTD, priority 2022, published 2026)
